Structures can show the parent of a compound that is named as a salt.

The first data set has as its system cyclooxygenase. Put plainly: Standard assay system using polymorphonuclear leukocytes: inhibition of HHT or TXB2 production from [1-14C] arachidonic acid. Particulars: polymorphonuclear leukocytes from guinea pig (4 x 10^7 cells), 5 minutes at 30°C, read-out: concentrations for 50% inhibitions on cyclooxygenase. The class given is cell-based. The method, then: The experiments for screening using polymorphonuclear leukocytes was carried out as follows: The reaction mixture (0.1 ml) containing 5 umole of potassium phosphate at pH 7.4, 0.1 µmole of calsium chloride, polymorphonuclear leukocytes prepared from guinea pigs (4 x 10^7 cells) and test compound was preincubated for 5 minutes at 30°C. The reaction was started by the addition of [^1-14C] arachidonic acid ([…] dpm, 1.8 nmole), followed by the incubation at 30°C for 5 minutes. The reaction was terminated by the addition of 0.3 ml of mixture of ether/ methanol/lM citric acid (30/4/1). The organic phase (20 µl) was applied to silica gel plate. Thin layer chromatography was performed to separate each product with solvent system of ether/petroleum ether/acetic acid (85/15/0.1).
Activity of 5-lipoxygenase and cyclooxygenase were calculated from the measurement of the radioactivity corresponding to 5-HETE and 12L-hydroxy-5,8,10-heptareienoic acid (i.e. HHT) or thromboxane B2 (i.e. TXB2). [it have been known that HHT and TXB2 were the last products of the system concerning cyclooxygenase in the arachidonate cascade] Further, it was determined that the concentrations of 50% inhibitions to produce 5-HETE and HHT or TXB2 for the 50% inhibiting concentrations of 5-lipoxygenase and cyclooxygenase, respectively.
As to `Nc1cc(Cl)cc(C(=O)c2ccc(Cl)cc2)c1O` [3-Amino-5,4'-dichloro-2-hydroxybenzophenone], the IC50 amounted to 3 µM.
As to `Nc1cc(F)cc(C(O)c2ccc(Cl)cc2)c1O` (stereo not drawn) [3-Amino-4'-chloro-5-fluoro-2-hydroxybenzhydrol hydrochloride], the IC50 was 7.2 µM.
On the same count and under the same terms, next, `CC(C)(C)c1cc(N)c(O)c(C(O)c2ccc(Cl)cc2)c1` (stereo not drawn) [3-Amino-5-t-butyl-4'-chloro-2-hydroxybenzhydrol hydrochloride]: 100 µM.
Still for that read-out and setting: next, `Nc1cc(F)cc(C(=O)c2ccc(Cl)cc2)c1O` [3-Amino-4'-chloro-5-fluoro-2-hydroxybenzophenona]: 2 µM.

A further data set deals with mice. In words: Acute toxicity by intravenous injection. Particulars: intravenous injection to tail vein, doses of 10 mg/Kg and 30 mg/Kg. It counts as in vivo. Here is the method:
On the other hand, all extent of the compounds of the present invention were confirmed that their acute toxicities were more than 30 mg/Kg by intravenous injection. Therefore, the compounds of the present invention may be considered to be sufficiently safe and suitable for medical use.
On to `COc1ccc(C(=O)c2cc(Cl)cc(N)c2O)cc1.Cl` [3-Amino-5-chloro-2-hydroxy-4'-methoxybenzophenone hydrochloride], for which the “dead case in 30 cases” value is “no dead case”.
As to `CCCCCCC(O)c1cc(C(C)(C)C)cc(N)c1O` (stereo not drawn) [2-Amino-4-t-butyl-6-(1-hydroxyheptyl)phenol], the “dead case in 30 cases” value is “no dead case”.
